From patent US20240118281A1, “ANTICANCER COMPOUNDS AND USES THEREOF” (University of Florida Research Foundation, Incorporated, priority 2021, published 2024)

Experiments:
ERAP1 = ERAP1 retention/secretion in MDA-MB-468 cells, immunoblot; type: cell-based; conditions: MDA-MB-468 cells
From the text: The BT20, BT474, BT549, MCF7, MDA-MB-231, MDA-MB-436, MDA-MB-468, HCC1143, HCC1500, HCC1569, HCC1937, HCC1954, Hs578t, and T47D cells lines were purchased from American Type Culture Collection (ATCC) (Manassas, VA). The HCI-001 cell line was derived from an ER-/PR-/HER2- patient-derived xenograft originally isolated from a patient as described previously (DeRose Y S, et al. Nat Med 2011; 17: 1514-1520). The HCI-001/LVM2 model was derived from the HCI-001 cell line by performing two rounds of selection for liver metastasis, as described previously (Wang M, et al. Cell Death Discovery 2019; 5: 153). Cell lines were grown in Dulbecco's Modified Eagle's Medium (GE Healthcare Life Sciences, Logan, UT) containing 10% fetal bovine serum (10% FBS—DMEM) in a humidified incubator with 5% CO2 at 37° C. Cell lysates were prepared as described previously (Law B K, et al. Mol Cell Biol. 2002; 22: 8184-8198). Immunoblot analysis was performed utilizing the following antibodies purchased from Cell Signaling Technology (Beverly, MA) [Akt, #4691; P-Akt[T308], #13038; ATF4, #11815; CHOP, #2895; Cleaved Caspase 8, #9496; DR4, #42533; DR5, #8074; EGFR, #4267; GRP78, #3177; HER3, #4754; PARP, #9532; PDIA1, #3501; XBP1s, #12782], from Santa Cruz Biotechnology (Santa Cruz, CA) [Actin, sc-47778; AGR2/3, sc-376653; AGR3, sc-390940; ERO1-a, sc-100805; and ERp44, sc-393687], or from Rockland Immunochemicals, Inc. (Limerick, PA), Streptavidin-Alkaline Phosphatase conjugated (SA-AP), S000-05.
(§1) To assess protein disulfide bond-mediated oligomerization, cells were treated with DDAs for 24 h in 10% FBS-DMEM. Cells were subsequently scraped directly into the media and pelleted by centrifugation. Cells were extracted directly into boiling 2×-SDS-Sample Buffer containing 100 mM NEM and boiled for 10 min. Samples were sonicated, followed by centrifugation for 20 min at room temperature. Samples were subsequently analyzed by SDS-PAGE and immunoblot.

ERp44 = biological target: T1, ERp44 (Homo sapiens, UniProt Q9BS26); experiment: ERp44 disulfide bonding with client proteins, non-reducing immunoblot; type: cell-based; set-up: endogenous in cells; host or cells: MDA-MB-468; conditions: MDA-MB-468 cells
T1 sequence (Q9BS26 30-406): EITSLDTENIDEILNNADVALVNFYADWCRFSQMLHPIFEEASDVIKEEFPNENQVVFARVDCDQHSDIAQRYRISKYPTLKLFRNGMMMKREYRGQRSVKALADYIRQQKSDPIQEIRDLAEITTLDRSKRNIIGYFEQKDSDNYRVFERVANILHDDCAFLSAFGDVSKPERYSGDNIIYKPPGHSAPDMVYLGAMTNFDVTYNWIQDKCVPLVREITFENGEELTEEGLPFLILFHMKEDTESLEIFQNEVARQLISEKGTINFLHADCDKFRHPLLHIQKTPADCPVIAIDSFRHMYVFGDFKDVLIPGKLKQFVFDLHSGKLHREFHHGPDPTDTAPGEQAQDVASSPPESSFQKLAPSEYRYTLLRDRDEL
Experimental: as §1

AGR2 = biological target: T2, AGR2 (Homo sapiens, UniProt O95994); experiment: DDA-AGR2 binding assay, Streptavidin-Alkaline Phosphatase blot; set-up: made in house; host or cells: E. coli BL21(DE3), pET-45b(+)
T2 sequence (O95994 21-175): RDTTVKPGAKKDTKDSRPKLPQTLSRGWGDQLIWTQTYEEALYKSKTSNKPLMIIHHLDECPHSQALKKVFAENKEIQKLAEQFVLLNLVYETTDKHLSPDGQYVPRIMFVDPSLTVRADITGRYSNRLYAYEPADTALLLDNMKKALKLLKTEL
Experimental: Competent BL21(DE3) cells were transformed with either the AGR2/pET-45b(+) or AGR2 C81S/pET-45b(+) vectors. Protein expression was induced by the addition of 50 µM Isopropyl β-D-1-thiogalactopyranoside (Fisher Scientific, Fair Lawn, NJ) to bacterial cell cultures for 2.5 hours and shaking at 37° C. Bacterial cells were subsequently pelleted and dissolved in Mouse Tonicity Phosphate Buffered Saline (MTPBS) containing 1% Triton X-100 and sonicated for 20 seconds on ice, followed by centrifugation for 10 min at 4° C. to pellet cell debris. The supernatant was transferred to a new tube, followed by the addition of TALON Resin (Clontech, Mountain View, CA) and mixing on a Nutator for 30 min at 4° C. The TALON Resin was pelleted by centrifugation and washed twice with MTPBS and twice with MTPBS containing 30 mM Imidazole. Protein bound to the TALON Resin was eluted with 400 mM Imidazole and precipitated with 60% saturated ammonium sulfate. The precipitated protein was pelleted by centrifugation, dissolved in MTPBS containing 1 mM DTT and 1 mM EDTA, and subsequently dialyzed against a solution of MTPBS containing 10 μM DTT and 30% Glycerol.
Purified His6-AGR2 or His6-AGR2 C81S, as prepared above, or His6-AGR2 (PRO-580) or His6-AGR3 (PRO-242) obtained from ProSpec (New Brunswick NJ) were incubated with or without varying concentrations of the unlabeled DDA competitors, tcyDTDO or dMtcyDTDO, and 30 μM Biotin-GlyPyrDTDO or Biotin-PyrDTDO in buffer (20 mM HEPES (pH 7.4), 1 mM EDTA, 1 mM EGTA, 5% Glycerol, 1 nM Microcystin, 1 mM Na3VO4, and 40 mM Na2H2P2O7) containing 1% Triton-X 100 for 30 min at 37° C. […] Therefore, the two probes were used interchangeably. Reactions were stopped by boiling the samples in 2×-SDS-Sample Buffer containing 100 mM NEM for 10 min. Biotin-DDA labeling of protein was verified by blotting with Streptavidin-Alkaline Phosphatase (Rockland Immunochemicals, Inc., Limerick, PA). ERp44 (PRO-547) and PDIA1 (ENZ-262) were obtained from ProSpec and used in experiments examining the binding of these proteins to Biotin-PyrDTDO.

CO[C@H]1C[C@@H]2CS(=O)(=O)SC[C@H]2C[C@@H]1OC [dMtcyDTDO, dimethoxy-tcyDTDO]
ERAP1 levels in the culture medium (ERAP1; 5 μM, 24 h, FIG. 4F upper): dramatically increased
ERAP1 secretion, statistical analysis (ERAP1; 5 μM, 24 h, N=3, FIG. 4F lower): induced ERAP1 secretion in a statistically significant manner
Cellular ERAP1 levels, immunoblot (ERAP1; 24 h, FIG. 4B): decreased cellular ERAP1 levels
Cellular ERAP1 levels, quantitation across four experiments (ERAP1; FIG. 4C): decreased ERAP1 levels and ERp44 binding to client proteins in a statistically significant manner
Disulfide bonding of ERp44 with client proteins (ERp44; 5 μM, 24 h, FIG. 3E): reduces disulfide bonding of ERp44 and PDIA1 with multiple proteins
Monomeric levels of ERp44 (ERp44; 5 μM, 24 h, FIG. 3E): minimal effect on monomeric levels
ERp44 binding to client proteins, quantitation across four experiments (ERp44; FIG. 4D): decreased ERAP1 levels and ERp44 binding to client proteins in a statistically significant manner
Ability to block Biotin-GlyPyrDTDO binding to AGR2, compared with tcyDTDO (AGR2; FIG. 2E, 9E-F): more effective competitor
Competition with Biotin-GlyPyrDTDO binding to AGR2 (AGR2; molar excess, pre-incubation with 600 μM, FIG. 2D): partially prevented Biotin-GlyPyrDTDO binding
